US20150094354A1, “METHOD FOR TREATING CELL PROLIFERATIVE DISORDER BY INHIBITING C1GALT1 EXPRESSION” (National Taiwan University, priority 2013, published 2015)

Columns and labels:
HCC36 cells = test: Trypan blue exclusion assay of C1GALT1-enhanced cell viability with MET inhibitor; assay type: cell-based, human; conditions: HCC36, C1GALT1 overexpression, 72 hours
Protocol: (§1) Cells (4×10^4) are seeded in each well of 6-well plates with DMEM containing 10% FBS. Viable cells are analyzed by Trypan blue exclusion assay at 0, 24, 48, and 72 hours. Cell proliferation is evaluated by immunostaining with anti-Ki67 antibody (1:1000; Vector Laboratories). For cell-cycle analysis, 1×10^6 cells are stained with propidium iodide (Sigma) for 30 minutes. The percentages of cells in G1, S, and G2M phases are analyzed by flow cytometry (Becton Dickinson). […] Data are represented as means±SD from three independent experiments (** refers to P<0.01).

Sk-Hep1 cells = test: as above; assay type: cell-based, human; conditions: Sk-Hep1, C1GALT1 overexpression, 72 hours
Protocol: as §1

C1GALT1 [1] = test: FITC-VVA FACS analysis of Tn antigen accumulation in T47D breast cancer cells; assay type: cell-based, human; conditions: mock and C1GALT1 overexpressed T47D transfectants, itraconazole 10 ug/ml
Protocol: (§2) FIGS. 86A-86D are graphs illustrating that itraconazole impairs C1GALT1 function leading to the accumulation of Tn antigen expression in breast cancer cells in accordance with an embodiment of the present invention. […] After itraconazole treatment, cells are detached with 5 mM EDTA. Afterwards, FITC conjugated Vicia villosa agglutinin (VVA), lectin specifically recognizing Tn antigen, is applied for analysis with a fluoresencce-activated cell sorting (FACS) system. A right-shift of the VVA peak indicates the accumulation of Tn antigens. […] After itraconazole treatment, cells are detached with 5 mM EDTA and treated with or without 10 mU/ml neuraminidase to unmask the effects of sialylated O-glycans. After treatment with neuraminidase, FITC conjugated Vicia villosa agglutinin (VVA), lectin specifically recognizing Tn antigen, is applied for analysis with a fluoresencce-activated cell sorting (FACS) system. […] To confirm whether the peak shift is a result of impaired C1GALT1 function, mock and C1GALT1 overexpressed T47D cells are analyzed. […] Overexpression of C1GALT1 results in a left-shift of the VVA peak in itraconazole-untreated transfectants, indicating intact C1GALT1 function in depleting Tn antigens as substrates for T antigen synthesis.

HCC36 cell lines = test: MTT cell growth assay, liver cancer cells; assay type: cell-based, human; parameters: dose or concentration left out as unconfirmed; conditions: HCC36, itraconazole for 5 days, compared with control (DMSO)
Protocol: (§3) FIG. 88C is a schematic diagram illustrating that itraconazole suppresses liver cancer cell growth in accordance with an embodiment of the present invention. To determine whether impairing C1GALT1 function affects liver cancer cell malignant phenotypes, the effects of itraconazole on liver cancer cell growth are analyzed by MTT cell growth assay in HCC36 cell lines. Cells (3×10^3) are seeded into 96-well microtitre plates and treated with DMSO (control) or itraconazole 10 µg/ml for 5 days at 37° C. under 5% CO2 atmosphere. Results from two independent experiments are presented as mean±SD and analyzed with student's t-test, *p<0.05 and **p<0.01.

T47D cell lines = test: MTT cell growth assay, breast cancer cells (itraconazole); assay type: cell-based, human; parameters: dose or concentration left out as unconfirmed; conditions: itraconazole for 5 days, compared with control (DMSO)
Protocol: as §3, with “88B” for “88C”, “breast” for “liver”, “T47D” for “HCC36”

CL1-5 cell lines = test: MTT cell growth assay, lung cancer cells; assay type: cell-based, human; parameters: dose or concentration left out as unconfirmed; conditions: CL1-5, itraconazole for 5 days, compared with control (DMSO)
Protocol: as §3, with “88A” for “88C”, “lung” for “liver”, “CL1-5” for “HCC36”

C1GALT1 [2] = target: T1, C1GALT1 (Homo sapiens, UniProt Q9NS00); test: FITC-VVA FACS analysis of Tn antigen accumulation in HCC36 liver cancer cells; assay type: cell-based; parameters: endogenous in cells; conditions: for VVA peak shift (accumulation of Tn antigens): itraconazole 10 ug/ml
Excerpt: According to another embodiment of the present invention, in the experiment in vitro, itraconazole, a small molecular drug, is used as the C1GALT1 inhibition substance. Itraconazole is an FDA approved drug that is clinically employed as an antimicrobial for the treatment of fungal, mycosis, and candida infections. The inventors of the present invention discovered that the structure of itraconazole is suitable for binding to the catalytic domain of C1GALT1 and inhibiting C1GALT1. Cells are cultured in DMEM with 10% FBS and treated with itraconazole 10 ug/ml for 3 days at 37° C. under 5% CO2.
as §2, with “FIGS. 87A-87D are graphs” for “FIGS. 86A-86D are graphs”, “leading to accumulation of” for “leading to the accumulation of”, “expression in […] cancer cells” for “expression in breast cancer cells”, “right-shift of VVA peak” for “right-shift of the VVA peak”, “C1GALT1 overexpressed HCC36 cells are” for “C1GALT1 overexpressed T47D cells are”, “results in left-shift of” for “results in a left-shift of”
Target sequence in this assay (Q9NS00 whole entry, the tested form may be a part): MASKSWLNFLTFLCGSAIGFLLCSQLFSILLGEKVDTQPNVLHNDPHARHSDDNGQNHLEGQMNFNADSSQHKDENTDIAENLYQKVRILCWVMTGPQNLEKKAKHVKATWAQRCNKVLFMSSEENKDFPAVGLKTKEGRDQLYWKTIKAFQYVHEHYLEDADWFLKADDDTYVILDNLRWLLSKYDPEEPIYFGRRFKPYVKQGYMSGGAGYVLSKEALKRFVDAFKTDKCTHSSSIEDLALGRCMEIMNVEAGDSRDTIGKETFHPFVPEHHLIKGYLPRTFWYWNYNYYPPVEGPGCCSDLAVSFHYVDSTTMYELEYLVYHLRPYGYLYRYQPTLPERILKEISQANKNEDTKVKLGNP

C1GALT1 [3] = target: T1, C1GALT1; test: FITC-VVA FACS analysis of Tn antigen accumulation in CL1-5 lung cancer cells; assay type: cell-based; parameters: endogenous in cells; conditions: for VVA peak shift (accumulation of Tn antigens): itraconazole 10 ug/ml
Protocol: as §2, with “85A-85D” for “86A-86D”, “lung” for “breast”, “indicates” for “indicates the”, “CL1-5” for “T47D”, “itraconazole untreated” for “itraconazole-untreated”
Target sequence in this assay (Q9NS00 whole entry, the tested form may be a part): as above

C1GALT1 [4] = target: T1, C1GALT1; test: FITC-VVA FACS analysis of Tn antigen accumulation in T47D breast cancer cells; assay type: cell-based; parameters: endogenous in cells; host or cells: T47D breast cancer cells
Protocol: as §2

Row | VVA peak shift (accumulation of Tn antigen substrates) (C1GALT1 [2]; C1GALT1 overexpressed HCC36 cells, sialylated O-glycans unmasked by neuraminidase) | VVA peak shift (accumulation of Tn antigens) (C1GALT1 [2]; HCC36 parental cells, regardless of sialylated O-glycans) | VVA peak shift (accumulation of Tn antigens) (C1GALT1 [2]; mock and C1GALT1 overexpressed HCC36 transfectants) | VVA peak shift (accumulation of Tn antigen substrates) (C1GALT1 [3]; C1GALT1 overexpressed CL1-5 cells, sialylated O-glycans unmasked by neuraminidase) | VVA peak shift (accumulation of Tn antigens) (C1GALT1 [3]; CL1-5 parental cells, regardless of sialylated O-glycans) | VVA peak shift (accumulation of Tn antigens) (C1GALT1 [3]; mock and C1GALT1 overexpressed CL1-5 transfectants) | VVA peak shift (accumulation of Tn antigen substrates) (C1GALT1 [4]; C1GALT1 overexpressed T47D cells, sialylated O-glycans unmasked by neuraminidase) | VVA peak shift (accumulation of Tn antigens) (C1GALT1 [4]; T47D parental cells, itraconazole 10 ug/ml, regardless of sialylated O-glycans) | Compound | C1GALT1-enhanced cell viability (HCC36 cells) | C1GALT1-enhanced cell viability (Sk-Hep1 cells) | VVA peak shift (accumulation of Tn antigens) (C1GALT1 [1]) | liver cancer cell growth (HCC36 cell lines) | breast cancer cell growth (T47D cell lines) | lung cancer cell growth (CL1-5 cell lines)
1 |  |  |  |  |  |  |  |  | Cc1[nH]c(/C=C2\C(=O)Nc3ccc(S(=O)(=O)Cc4c(Cl)cccc4Cl)cc32)c(C)c1C(=O)N1CCC[C@@H]1CN1CCCC1 [PHA665752] | significantly inhibited | significantly inhibited |  |  |  | 
2 | major peak shifts to the right | right shift of the VVA peak | major right-shift of the VVA peaks | major peak shifts to the right | right shift of the VVA peak | major right-shift of the VVA peaks | major peak shifts to the right | right shift of the VVA peak | CCC(C)n1ncn(-c2ccc(N3CCN(c4ccc(OCC5COC(Cn6cncn6)(c6ccc(Cl)cc6Cl)O5)cc4)CC3)cc2)c1=O (centres unmarked) [itraconazole] |  |  | major right-shift of the VVA peaks | significantly suppressed | significantly suppressed | significantly suppressed
